Values joined by “and” are separate entries in the source; they are usually repeats but may differ in a detail not shown here. Identical values can stand only once.
Biological target: T1, human GPBAR1 (Homo sapiens, UniProt Q8TDU6)
T1 construct: expressed in transfected cells; host or cells: HEK-293T
T1 sequence (Q8TDU6 1-330): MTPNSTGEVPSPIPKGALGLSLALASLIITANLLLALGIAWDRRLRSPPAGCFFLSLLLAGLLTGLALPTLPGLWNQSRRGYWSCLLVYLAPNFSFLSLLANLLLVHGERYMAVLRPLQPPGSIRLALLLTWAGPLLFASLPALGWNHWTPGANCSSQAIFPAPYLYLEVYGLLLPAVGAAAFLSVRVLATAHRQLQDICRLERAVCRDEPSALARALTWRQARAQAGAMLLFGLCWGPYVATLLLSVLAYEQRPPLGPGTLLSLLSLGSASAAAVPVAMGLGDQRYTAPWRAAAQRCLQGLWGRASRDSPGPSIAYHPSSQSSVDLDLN
Assay: GPBAR1 mediated transactivation, CRE-luciferase reporter in transfected HEK-293T cells
Format: cell-based
Description: Selected compounds were tested in vitro on FXR and TGR5/GPBAR1 receptors (Table 1) using a whole cell model transfected with a reporter genes. The activity was evaluated in comparison with chenodeoxycholic acid (CDCA) and TLCA.
CDCA is a primary bile acid that functions as an endogenous ligand for FXR, while TLCA is a physiological ligand for TGR5/GPBAR1. In this assay, HepG2 cells (a liver-derived cell line) were cultured at 37° C. in minimum essential medium with Earl's salts containing 10% fetal bovine serum (FBS), 1% L-glutamine, and 1% penicillin/streptomycin. HEK-293T cells were cultured at 37° C. in D-MEM containing 10% fetal bovine serum (FBS), 1% L-glutamine, and 1% penicillin/streptomycin. The transfection experiments were performed using Fugene HD according to manufactured specifications. Cells were plated in a 24-well plate at 5×10^4 cells/well. For FXR mediated transactivation, HepG2 cells were transfected with 100 ng of pSG5-FXR, 100 ng of pSG5-RXR, 100 ng of pGL4.70 a vector encoding the human Renilla gene and 250 ng of the reporter vector p(hsp27)-TK-LUC containing the FXR response element IR1 cloned from the promoter of heat shock protein 27 (hsp27).
For GPBAR1 mediated transactivation, HEK-293T cells were transfected with 200 ng of pGL4.29, a reporter vector containing a cAMP response element (CRE) that drives the transcription of the luciferase reporter gene luc2P, with 100 ng of pCMVSPORT6-human GPBAR1, and with 100 ng of pGL4.70 a vector encoding the human Renilla gene. In control experiments HEK-293T cells were transfected only with vectors pGL4.29 and pGL4.70 to exclude any possibility that compounds could activate the CRE in a GPBAR1 independent manner. At 24 h post-transfection, cells were stimulated for 18 h with 10 μM TLCA as a control agent or putative GPBAR1 agonists as the same concentration. After treatments, cells were lysed in 100 μL of lysis buffer (25 mM Tris-phosphate, pH 7.8; 2 mM DTT; 10% glycerol; 1% Triton X-100), and 20 μL of cellular lysate was assayed for luciferase activity using the luciferase assay system. Luminescence was measured using Glomax 20/20 luminometer. Luciferase activities were normalized against Renilla activities. Antagonism against FXR of GPBAR1/TGR5 was measured as percent of activity in transactivation assay suing activity of TLCA as example of agonism.
The data on the activity of certain compounds of the invention on TGR5/GPBAR1 are described in the following table 1. In this table, activities for compounds of the invention on GPBAR1 was compared to those of the reference compound TLCA. For % of activity, each compound was tested at the concentration of 10 microM and transactivation activity of TLCA on CRE (i.e. TGR5/GPBAR1) was considered equal to 100%. For selectivity toward FXR, activity was assessed in HepG2 cells transfected with an FXR responsive element (IR1) cloned upstream to the luciferase gene. For calculation of efficacy data, maximal transactivation of IR1 caused by each compound (10 μM) was compared to maximal transactivation caused by CDCA (10 μM). GPBAR1/FXR selectivity calculated as ratio between % of activity toward GPBAR1 and % of activity toward FXR. Each experiment was conducted in triplicate.

Compound: CC[C@]1(O)C[C@H]2[C@@H]3CC[C@H]([C@H](C)CC#N)[C@@]3(C)CC[C@@H]2[C@@]2(C)CC[C@@H](O)C[C@@H]12 [PBT110B, 3α,6α-dihydroxy-6β-ethyl-24-nor-5β-cholan-23-nitrile]
- EC50 (HEK-293T CRE-luciferase transactivation): 300 nM
- GPBAR1 (% of activity in comparison to 10 μM TLCA) (compound at 10 microM, HEK-293T, TLCA = 100%, triplicate): 101.2% and 101.2 ± 4.1%
- GPBAR1/FXR selectivity (ratio between % of activity toward GPBAR1 and % of activity toward FXR): 8.2
